# Assay results published in patent US20200291018A1, “TAM KINASE INHIBITORS” (SYROS PHARMACEUTICALS, INC., priority 2017, published 2020).
# Assays:
# [1] = molecular target: T1, FLT3 (Homo sapiens, UniProt P36888); assay: TR-FRET kinase activity assay, FLT3; assay type: biochemical; conditions: ATP at Km, 60 minutes
# T1 sequence (P36888 27-993): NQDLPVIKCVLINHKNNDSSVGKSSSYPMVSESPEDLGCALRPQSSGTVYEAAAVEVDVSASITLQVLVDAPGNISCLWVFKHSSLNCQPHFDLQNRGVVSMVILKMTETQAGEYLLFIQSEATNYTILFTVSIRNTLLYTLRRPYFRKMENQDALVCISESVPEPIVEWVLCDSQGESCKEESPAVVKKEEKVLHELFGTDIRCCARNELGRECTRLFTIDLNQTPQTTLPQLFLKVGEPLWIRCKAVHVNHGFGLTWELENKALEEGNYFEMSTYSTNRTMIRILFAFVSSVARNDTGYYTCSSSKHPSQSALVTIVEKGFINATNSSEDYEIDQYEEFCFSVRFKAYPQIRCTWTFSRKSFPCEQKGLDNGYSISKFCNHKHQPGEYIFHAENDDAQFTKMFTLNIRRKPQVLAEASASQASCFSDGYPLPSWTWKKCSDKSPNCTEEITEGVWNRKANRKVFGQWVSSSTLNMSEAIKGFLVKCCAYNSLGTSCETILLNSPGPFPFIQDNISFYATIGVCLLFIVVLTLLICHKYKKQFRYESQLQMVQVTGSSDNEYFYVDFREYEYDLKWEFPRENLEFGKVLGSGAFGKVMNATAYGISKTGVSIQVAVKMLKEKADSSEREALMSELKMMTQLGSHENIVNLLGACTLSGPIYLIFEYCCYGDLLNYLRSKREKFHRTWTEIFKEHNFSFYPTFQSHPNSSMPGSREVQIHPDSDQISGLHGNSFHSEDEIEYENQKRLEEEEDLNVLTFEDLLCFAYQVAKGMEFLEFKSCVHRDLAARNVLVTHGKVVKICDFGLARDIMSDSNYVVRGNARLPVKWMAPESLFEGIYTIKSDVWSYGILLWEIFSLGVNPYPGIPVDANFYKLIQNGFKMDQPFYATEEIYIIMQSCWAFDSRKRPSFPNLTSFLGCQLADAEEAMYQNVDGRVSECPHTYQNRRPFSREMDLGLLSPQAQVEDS
# Procedure, shortened: (§1)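 TR-FRET signal from Eu-labeled phospho-site antibody bound to tyrosine-phosphorylated fluorescent peptide; inhibition lowers signal, giving IC50. Reactions: 50 mM HEPES pH 7.5, 10 mM MgCl2, 1 mM EGTA, 0.01% Brij 35, 1 mM DTT, ATP at Km per enzyme, 60 min, RT.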
# [2] = molecular target: T2, MERTK (Homo sapiens, UniProt Q12866); assay: TR-FRET kinase activity assay, MERTK; assay type: biochemical; conditions: for IC50: TR-FRET activity assay, ATP at Km, 60 minutes, read-out: Mer IC50; for Mer/Flt3 ratio (FLT3 IC50/Mer IC50): ratio calculated as FLT3 IC50/Mer IC50
# T2 sequence (Q12866 21-999): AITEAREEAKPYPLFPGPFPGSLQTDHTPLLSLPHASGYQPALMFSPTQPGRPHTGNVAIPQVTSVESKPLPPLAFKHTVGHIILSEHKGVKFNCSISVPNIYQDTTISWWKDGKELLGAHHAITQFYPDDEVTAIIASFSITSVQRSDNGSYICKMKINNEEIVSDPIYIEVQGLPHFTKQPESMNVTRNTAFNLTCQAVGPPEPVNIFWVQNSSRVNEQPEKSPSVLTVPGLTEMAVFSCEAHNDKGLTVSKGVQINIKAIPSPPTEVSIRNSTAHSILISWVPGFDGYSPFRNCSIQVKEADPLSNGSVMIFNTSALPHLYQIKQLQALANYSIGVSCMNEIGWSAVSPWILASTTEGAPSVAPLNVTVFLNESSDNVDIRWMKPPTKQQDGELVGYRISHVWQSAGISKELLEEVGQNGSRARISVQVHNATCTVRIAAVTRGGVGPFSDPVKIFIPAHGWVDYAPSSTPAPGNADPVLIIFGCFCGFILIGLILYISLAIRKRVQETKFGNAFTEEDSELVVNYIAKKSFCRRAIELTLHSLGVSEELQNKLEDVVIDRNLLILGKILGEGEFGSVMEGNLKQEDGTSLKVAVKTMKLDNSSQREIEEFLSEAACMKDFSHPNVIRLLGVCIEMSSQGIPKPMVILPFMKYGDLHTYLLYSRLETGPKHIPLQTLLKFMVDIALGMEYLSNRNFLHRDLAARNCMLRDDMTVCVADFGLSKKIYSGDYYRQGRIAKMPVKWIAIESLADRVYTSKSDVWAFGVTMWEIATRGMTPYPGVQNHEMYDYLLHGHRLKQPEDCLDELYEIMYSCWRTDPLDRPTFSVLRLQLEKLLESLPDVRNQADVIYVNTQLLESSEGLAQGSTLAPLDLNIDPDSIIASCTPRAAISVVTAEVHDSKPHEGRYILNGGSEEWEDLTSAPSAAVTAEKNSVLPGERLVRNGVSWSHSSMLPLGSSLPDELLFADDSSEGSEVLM
# Procedure, shortened: as §1
Compound,IC50 [1] [nM],IC50 [2] [nM],Mer/Flt3 ratio (FLT3 IC50/Mer IC50) [2]
CCCC(C)Nc1ncc2c(O[C@H]3CC[C@@H](O)CC3)ncc([C@H]3CC[C@H](O)CC3)c2n1 (stereo partly drawn) [Compound 148],1000 to 10000,≤ 100,+++ (a ratio of >100)
CCCC(C)Nc1ncc2c(=O)n(C3CCN(CC(=O)N(C)C)CC3)cc([C@H]3CC[C@@H](O)CC3)c2n1 (stereo partly drawn) [Compound 149],1000 to 10000,≤ 100,+++ (a ratio of >100)
CCCC(C)Nc1ncc2c(=O)n(C3CCN(CCOC)CC3)cc([C@H]3CC[C@H](O)CC3)c2n1 (stereo partly drawn) [Compound 150],1000 to 10000,≤ 100,+++ (a ratio of >100)
CCCC(C)Nc1ncc2c(=O)n(C3CCN(CCC(=O)N(C)C)CC3)cc([C@H]3CC[C@H](O)CC3)c2n1 (stereo partly drawn) [Compound 151],1000 to 10000,≤ 100,+++ (a ratio of >100)
CCC[C@@H](C)Nc1ncc2c(=O)n(C3CCNCC3)cc([C@H]3CC[C@H](O)CC3)c2n1 [Compound 152],1000 to 10000,≤ 100,+++ (a ratio of >100)
CCCC(C)Nc1ncc2c(OC3CCC(F)(F)CC3)ncc([C@H]3CC[C@H](O)CC3)c2n1 (stereo partly drawn) [Compound 153],1000 to 10000,≤ 100,+++ (a ratio of >100)
CCCC(C)Nc1ncc2c(NC3CCN(C)CC3)ncc([C@H]3CC[C@H](O)CC3)c2n1 (stereo partly drawn) [Compound 154],100 to 1000,≤ 100,+++ (a ratio of >100)
CCCC(C)Nc1ncc2c(N3CCC(NC)CC3)ncc([C@H]3CC[C@H](O)CC3)c2n1 (stereo partly drawn) [Compound 155],1000 to 10000,≤ 100,+++ (a ratio of >100)
CCCC(C)Nc1ncc2c(N3CC[C@@H](N(C)C)C3)ncc([C@H]3CC[C@H](O)CC3)c2n1 (stereo partly drawn) [Compound 156],1000 to 10000,≤ 100,++ (a ratio of between 10 and 100)
CCCC(C)Nc1ncc2c(OC[C@H]3CC[C@@H](O)CC3)ncc([C@H]3CC[C@H](O)CC3)c2n1 (stereo partly drawn) [Compound 157],1000 to 10000,≤ 100,++ (a ratio of between 10 and 100)
CCCC(C)Nc1ncc2c(NC3CCNCC3)ncc([C@H]3CC[C@H](O)CC3)c2n1 (stereo partly drawn) [Compound 158],100 to 1000,≤ 100,+++ (a ratio of >100)
CCCC(C)Nc1ncc2c(N3CC[C@H](N(C)C)C3)ncc([C@H]3CC[C@H](O)CC3)c2n1 (stereo partly drawn) [Compound 159],1000 to 10000,≤ 100,++ (a ratio of between 10 and 100)
CCCC(C)Nc1ncc2c(OC[C@H]3CC[C@H](O)CC3)ncc([C@H]3CC[C@H](O)CC3)c2n1 (stereo partly drawn) [Compound 160],1000 to 10000,≤ 100,+++ (a ratio of >100)
CCCC(C)Nc1ncc2c(OC3CC(C)(C)N(C)C(C)(C)C3)ncc([C@H]3CC[C@H](O)CC3)c2n1 (stereo partly drawn) [Compound 161],100 to 1000,≤ 100,+++ (a ratio of >100)
CN1CCC(Nc2ncc3c(OC4CCNCC4)ncc([C@H]4CC[C@H](O)CC4)c3n2)C1=O (stereo partly drawn) [Compound 162],1000 to 10000,1000 to 10000,+ (a ratio of >2.0 and <10)
Cc1nccn1CCNc1ncc2c(OC3CCNCC3)ncc([C@H]3CC[C@H](O)CC3)c2n1 [Compound 163],1000 to 10000,1000 to 10000,+ (a ratio of >2.0 and <10)
O[C@H]1CC[C@H](c2cnc(OC3CCNCC3)c3cnc(NC4CCC(F)(F)CC4)nc32)CC1 [Compound 164],1000 to 10000,≤ 100,++ (a ratio of between 10 and 100)
CCCC(C)Nc1ncc2c(NC3CCN(C(=O)C(F)(F)F)CC3)ncc([C@H]3CC[C@H](O)CC3)c2n1 (stereo partly drawn) [Compound 165],100 to 1000,≤ 100,+++ (a ratio of >100)
CCCC(C)Nc1ncc2c(OC3CCNCC3)ncc([C@H]3CC[C@H](O)CC3)c2n1 (stereo partly drawn) [Compound 166],100 to 1000,≤ 100,+++ (a ratio of >100)
CC1CC(Nc2ncc3c(OC4CCNCC4)ncc([C@H]4CC[C@H](O)CC4)c3n2)C1 (stereo partly drawn) [Compound 167],≤ 100,≤ 100,++ (a ratio of between 10 and 100)
CC1CC(Nc2ncc3c(OC4CCNCC4)ncc([C@H]4CC[C@@H](O)CC4)c3n2)C1 (stereo partly drawn) [Compound 168],100 to 1000,≤ 100,++ (a ratio of between 10 and 100)
CCCC(C)Nc1ncc2c(=O)n(CCN(C)C)cc([C@H]3CC[C@H](O)CC3)c2n1 (stereo partly drawn) [Compound 169],1000 to 10000,≤ 100,+++ (a ratio of >100)
CCCC(C)Nc1ncc2c(OC3CCN(CCC(=O)N(C)C)CC3)ncc([C@H]3CC[C@H](O)CC3)c2n1 (stereo partly drawn) [Compound 170],1000 to 10000,≤ 100,+++ (a ratio of >100)
CCC[C@H](C)Nc1ncc2c(OC3CCNCC3)ncc([C@H]3CC[C@H](O)CC3)c2n1 [Compound 171],100 to 1000,≤ 100,+++ (a ratio of >100)
CCCC(C)Nc1ncc2c(OC3CCN(CC(=O)N(C)C)CC3)ncc([C@H]3CC[C@H](O)CC3)c2n1 (stereo partly drawn) [Compound 172],1000 to 10000,≤ 100,+++ (a ratio of >100)
CCCC(C)Nc1ncc2c(OC3CCN(CCOC)CC3)ncc([C@H]3CC[C@H](O)CC3)c2n1 (stereo partly drawn) [Compound 173],1000 to 10000,≤ 100,+++ (a ratio of >100)
